Source: patent US20250101058A1, “CRYSTAL FORM OF HIGH-STABILITY NOR-URSODEOXYCHOLIC BERBERINE SALT, AND PREPARATION METHOD THEREFOR” (CHENGDU BIOBEL BIOTECHNOLOGY CO., LTD, priority 2022, published 2025)
Read-outs that look alike come from different tables or passages of the source.

Experiments:
[1] = Pressure stability testing (tableting at 10 kN); format: physicochemical; conditions: 10 kN pressure; for Adhesion percentage: (ML-MT)/ML×100%; for Tensile strength T: T=2H/πDt; for Crystalline form after pressing: XRPD of crushed sample; for Tablet diameter D / Tablet thickness t: after 24 h elastic recovery; for Adhesion amount: powder adhesive to the punch; for Hardness H: radial crushing strength
Method: 100 mg samples of crystalline forms A and D were respectively added to […] of round flat punch, and then pressed into circular tablets using 10 kN pressure. The loading mass (ML) and tablet mass (MT) were recorded, and then the formula ma=(ML-MT)/ML×100% was used to calculate the mass percentage (ma) of the powder adhesive to the punch; the pressed tablets were kept in a dryer for 24 h for elastic recovery. After elastic recovery, the diameter (D) and thickness (t) of the tablet were measured using a vernier caliper. The radial crushing strength (hardness, H) was measured using a tablet hardness tester, and the XRPD pattern of the crushed sample was also tested.

[2] = format: physicochemical; conditions: for Purity (area): HPLC
Method: The samples of crystalline forms A and D were stored in an opened bottle for one week under 25° C./60% RH and 40° C./75% RH conditions, respectively. The physical and chemical stability of the samples was detected by XRPD and HPLC.

[3] = Grinding stability testing (XRPD); format: physicochemical; conditions: 50 mg manually ground
Method: 50 mg samples of crystalline form A and crystalline form D were manually ground, and then detected by XRPD.

[4] = Competition experiment for crystalline forms A, C, and D in suspension; format: physicochemical; conditions: aw 0.2-1; stirring at room temperature, 8 days; XRPD
Method: The starting material obtained in step 1 of Example 1 was added to the corresponding volume of solvent, and then allowed to suspend under stirring at room temperature for 2 h. The suspension was filtered with a 0.4 μm PTFE filter membrane to obtain a saturated solution. About 3 mg samples of crystalline forms A, C, and D were separately weighed and transferred to HPLC vials, to which was added 1 mL of saturated solution, and then the mixture was allowed to suspend under stirring at room temperature. After 8 days, the suspension was filtered to obtain the solid, and the change in crystalline form was identified by XRPD analysis.

[5] = Hygroscopicity test (dynamic vapor sorption, DVS); format: physicochemical
Method: The mass change percentage of crystalline form A was tested using dynamic vapor sorption (DVS) under constant temperature conditions of 25° C. and various humidity conditions, with a humidity change of 30% RH to 95% RH to 0% RH to 95% RH.
Crystalline form A had good physical stability.

[6] = previous studies, CN2021110940333; cited from earlier work
[7] = Stability of crystalline form G on heating and on exposure after opening the cover; format: physicochemical; conditions: cover opened and kept for 1 h
[8] = One week, 25° C./60% RH and 40° C./75% RH

Row | Tablet mass [1] | Adhesion percentage [1] | Tensile strength T [1] | Crystalline form after pressing [1] | Tablet diameter D [1] | Tablet thickness t [1] | Adhesion amount [1] | Hardness H [1] | Change of crystal structure / crystalline form (physical stability) [2] | Purity (area) ([2]; Initial) | Relative purity percentage (vs initial purity) ([2]; One week, 25° C./60% RH) | Purity (area) ([2]; One week, 25° C./60% RH) | Relative purity percentage (vs initial purity) ([2]; One week, 40° C./75% RH) | Purity (area) ([2]; One week, 40° C./75% RH) | Crystalline form after grinding [3] | Molecule | other results
1 | 96.9 mg | 3.3% | 1.69 MPa | remained unchanged | 6.02 mm | 2.90 mm | 3.3 mg | 46.31 N | not obviously changed | 98.61% | 99.63% | 98.24% | 99.37% | 97.99% | transformed into amorphous | CC(CC(=O)[O-])C1CCC2C3C(O)CC4CC(O)CCC4(C)C3CCC12C.COc1ccc2cc3[n+](cc2c1OC)CCc1cc2c(cc1-3)OCO2 (stereo not drawn) [Crystalline form D, nor-ursodeoxycholic berberine salt] | Purity decrease ([2]; One week, 25° C./60% RH): 0.37%; Crystallinity after storage [2, 8]: the crystallinity decreased; Sample appearance after storage [2, 8]: turned dark brown; Purity decrease ([2]; One week, 40° C./75% RH): 0.62%
2 | – | – | – | – | – | – | – | – | – | – | – | – | – | – | – | CC(CC(=O)[O-])C1CCC2C3C(O)CC4CC(O)CCC4(C)C3CCC12C.COc1ccc2cc3[n+](cc2c1OC)CCc1cc2c(cc1-3)OCO2 (stereo not drawn) [Crystalline form C, nor-ursodeoxycholic berberine salt] | Solid form obtained after competition in suspension [4]: transition to form A
3 | 103.2 mg | 1.6% | 2.38 MPa | remained unchanged | 6.02 mm | 2.90 mm | 1.7 mg | 65.37 N | the crystal structure was not changed | 99.26% | 100.0% | 99.24% | 100.0% | 99.23% | remained unchanged | nor-ursodeoxycholic berberine salt [Crystalline form A] | Purity change (chemical stability) [2]: not changed significantly; Water adsorption rate ([5]; DVS, 25° C., 80% RH): 8.7%; Water absorption behaviour ([5]; DVS, 25° C., after the relative humidity reached 10%): slowly absorbed water; Water absorption behaviour ([5]; DVS, 25° C., relative humidity range of 0% to 10%): rapidly absorbed water; Crystalline form before and after DVS testing ([5]; XRPD after DVS): did not change; Crystallinity after grinding [3]: the crystallinity decreased
4 | – | – | – | – | – | – | – | – | – | – | – | – | – | – | – | nor-ursodeoxycholic berberine salt | Alanine aminotransferase (ALT) [6]: significantly reduce; Alkaline phosphatase (ALP) [6]: significantly reduce; Glutamic oxaloacetic transaminase (AST) [6]: significantly reduce; Liver pathological damage (such as hepatic steatosis) [6]: significant improvement effect; Therapeutic effect on fatty liver, liver fibrosis, and cirrhosis versus HTD1801 [6]: significantly better than that of HTD1801; Therapeutic effect on fatty liver, liver fibrosis, and cirrhosis versus individual norUDCA and berberine hydrochloride [6]: superior to the sum of the effects produced by individual norUDCA and berberine hydrochloride
5 | – | – | – | – | – | – | – | – | – | – | – | – | – | – | – | CC(CC(=O)[O-])C1CCC2C3C(O)CC4CC(O)CCC4(C)C3CCC12C.COc1ccc2cc3[n+](cc2c1OC)CCc1cc2c(cc1-3)OCO2 (stereo not drawn) [Crystalline form G, nor-ursodeoxycholic berberine salt] | Crystalline form after opening the cover [7]: turned back into form A
